{"source": "patent US10363239B2", "about": "“Method for inhibiting growth of cancer cells” (Pain Therapeutics, Inc., priority 2013, dated 2019)", "key": {"melanoma cells": {"system": "melanoma cells", "experiment": "Cell proliferation by cell-cycling markers Ki67 and PCNA (Western blots)", "format": "cell-based, human", "details": "0.1-5 nM; 4 days", "experimental": "The effect of contact with Compound C0105 on cell proliferation was determined by the levels of cell-cycling markers: Ki67 and PCNA (proliferating cell nuclear antigen) using Western blots in human melanoma cells. Cells treated with vehicle and 0.1-5 nM C0105 for 4 days were collected, washed and solubilized (lysed). The resultant cell lysates were size-fractionated on SDS-PAGE and Western blotting to determine the levels of Ki67, PCNA and actin (loading control). The protein bands were quantified using densitometric scanning. […] N=4. *p<0.01 compared to vehicle (open bars).\nTo study the effect of Compound C0105 on PI3K activity, the cancer and primary normal cells were cultured to approximately 60-70% confluency, serum deprived for 4 hours, briefly washed with PBS and treated with vehicle or 0.1, 0.5, 1 or 5 nM Compound C0105 for 24 hours with in 0.1% FBS-containing culture medium. The cells were then washed with PBS, scraped off and collected by centrifugation. The cell pellets were sonicated in ice-cold immunoprecipitation buffer and protein concentrations measured by the Bradford method. […]\nImmunoreactivity was visualized by reaction in ECL Plus chemiluminescent reagent for exactly 5 minutes, followed by immediate exposure of the blot to X-ray film (Z & Z Medical). Bands at the relevant molecular masses of Ki67 and PCNA were quantified by densitometric scan. […]"}, "[1]": {"system": "small-cell lung carcinoma cells", "experiment": "Cell proliferation by cell-cycling markers Ki67 and PCNA (Western blots)", "format": "cell-based, human", "details": "0.1-5 nM; 4 days"}, "[2]": {"system": "primary neuroendocrine tumor cells", "experiment": "Cell proliferation by Ki67 and PCNA (Western blotting)", "format": "cell-based, human", "details": "1 nM; 4 days"}, "[3]": {"system": "metastatic (liver) neuroendocrine tumor cells", "experiment": "Cell proliferation by Ki67 and PCNA (Western blotting)", "format": "cell-based, human", "details": "1 nM; 4 days"}, "[4]": {"system": "pS2152FLNA, FLNA-associated PTEN and PP2A in primary lung fibroblast cells", "experiment": "pS2152FLNA and FLNA-associated PTEN and PP2A in anti-FLNA immunoprecipitate (Western blotting)", "format": "cell-based, human", "details": "0.1-5 nM; 4 days", "experimental": "The effect of contact with Compound C0105 on the levels of pS^2152FLNA and FLNA-associated phosphatases, PTEN and PP2A subclasses was determined in primary lung fibroblast cells. Cells were treated with vehicle and 0.1-5 nM Compound C0105 for 4 days. Cells were washed, solubilized and the resultant cell lysate was immunoprecipitated with anti-FLNA. The levels of pS^2152FLNA and FLNA-associated phosphatases, PTEN and PP2A subclasses in the anti-FLNA immunoprecipitate were determined by Western blotting. The density of protein bands was measured by densitometric scanning. […] N=4. **p<0.05, *p<0.01 compared to vehicle (open bars). […]\nThe cell lysates were diluted 5-fold with immunoprecipitation buffer and immunoprecipitated with anti-FLNA, -Akt, -mTOR and -ERK2 as described previously [Talbot et al., J Clin Inv 122(4):1-23 (2012); Wang et al., J Neurosci 32(29):9773-9784 (2012)]. The levels of FLNA linkages, activated phosphorylated Akt (pS^473 and pT^308), phosphorylated mTOR (pS^2448) and phosphorylated ERK2 (pY/pT) were determined in anti-FLNA, -Akt, -mTOR and -ERK2 immunoprecipitates by Western blotting with appropriate antibodies directed against PTEN, PP2A, K-RAS, ras-GAP (FLNA linkages), pS^473Akt, pT^308Akt, pS^2448mTOR and pY/pT ERK2 (activation of Akt, mTOR and ERK2)."}, "FLNA from MiaPaCa2 cells": {"target": "T1, FLNA from MiaPaCa2 cells (Homo sapiens, UniProt P21333)", "T1 construct": "FLNA was purified separately from MiaPaCa2 cells and from HPECs; endogenous in cells; host or cells: MiaPaCa2 (MIA PaCa-2, ATCC CRL-1420)", "T1 sequence (P21333 whole entry)": "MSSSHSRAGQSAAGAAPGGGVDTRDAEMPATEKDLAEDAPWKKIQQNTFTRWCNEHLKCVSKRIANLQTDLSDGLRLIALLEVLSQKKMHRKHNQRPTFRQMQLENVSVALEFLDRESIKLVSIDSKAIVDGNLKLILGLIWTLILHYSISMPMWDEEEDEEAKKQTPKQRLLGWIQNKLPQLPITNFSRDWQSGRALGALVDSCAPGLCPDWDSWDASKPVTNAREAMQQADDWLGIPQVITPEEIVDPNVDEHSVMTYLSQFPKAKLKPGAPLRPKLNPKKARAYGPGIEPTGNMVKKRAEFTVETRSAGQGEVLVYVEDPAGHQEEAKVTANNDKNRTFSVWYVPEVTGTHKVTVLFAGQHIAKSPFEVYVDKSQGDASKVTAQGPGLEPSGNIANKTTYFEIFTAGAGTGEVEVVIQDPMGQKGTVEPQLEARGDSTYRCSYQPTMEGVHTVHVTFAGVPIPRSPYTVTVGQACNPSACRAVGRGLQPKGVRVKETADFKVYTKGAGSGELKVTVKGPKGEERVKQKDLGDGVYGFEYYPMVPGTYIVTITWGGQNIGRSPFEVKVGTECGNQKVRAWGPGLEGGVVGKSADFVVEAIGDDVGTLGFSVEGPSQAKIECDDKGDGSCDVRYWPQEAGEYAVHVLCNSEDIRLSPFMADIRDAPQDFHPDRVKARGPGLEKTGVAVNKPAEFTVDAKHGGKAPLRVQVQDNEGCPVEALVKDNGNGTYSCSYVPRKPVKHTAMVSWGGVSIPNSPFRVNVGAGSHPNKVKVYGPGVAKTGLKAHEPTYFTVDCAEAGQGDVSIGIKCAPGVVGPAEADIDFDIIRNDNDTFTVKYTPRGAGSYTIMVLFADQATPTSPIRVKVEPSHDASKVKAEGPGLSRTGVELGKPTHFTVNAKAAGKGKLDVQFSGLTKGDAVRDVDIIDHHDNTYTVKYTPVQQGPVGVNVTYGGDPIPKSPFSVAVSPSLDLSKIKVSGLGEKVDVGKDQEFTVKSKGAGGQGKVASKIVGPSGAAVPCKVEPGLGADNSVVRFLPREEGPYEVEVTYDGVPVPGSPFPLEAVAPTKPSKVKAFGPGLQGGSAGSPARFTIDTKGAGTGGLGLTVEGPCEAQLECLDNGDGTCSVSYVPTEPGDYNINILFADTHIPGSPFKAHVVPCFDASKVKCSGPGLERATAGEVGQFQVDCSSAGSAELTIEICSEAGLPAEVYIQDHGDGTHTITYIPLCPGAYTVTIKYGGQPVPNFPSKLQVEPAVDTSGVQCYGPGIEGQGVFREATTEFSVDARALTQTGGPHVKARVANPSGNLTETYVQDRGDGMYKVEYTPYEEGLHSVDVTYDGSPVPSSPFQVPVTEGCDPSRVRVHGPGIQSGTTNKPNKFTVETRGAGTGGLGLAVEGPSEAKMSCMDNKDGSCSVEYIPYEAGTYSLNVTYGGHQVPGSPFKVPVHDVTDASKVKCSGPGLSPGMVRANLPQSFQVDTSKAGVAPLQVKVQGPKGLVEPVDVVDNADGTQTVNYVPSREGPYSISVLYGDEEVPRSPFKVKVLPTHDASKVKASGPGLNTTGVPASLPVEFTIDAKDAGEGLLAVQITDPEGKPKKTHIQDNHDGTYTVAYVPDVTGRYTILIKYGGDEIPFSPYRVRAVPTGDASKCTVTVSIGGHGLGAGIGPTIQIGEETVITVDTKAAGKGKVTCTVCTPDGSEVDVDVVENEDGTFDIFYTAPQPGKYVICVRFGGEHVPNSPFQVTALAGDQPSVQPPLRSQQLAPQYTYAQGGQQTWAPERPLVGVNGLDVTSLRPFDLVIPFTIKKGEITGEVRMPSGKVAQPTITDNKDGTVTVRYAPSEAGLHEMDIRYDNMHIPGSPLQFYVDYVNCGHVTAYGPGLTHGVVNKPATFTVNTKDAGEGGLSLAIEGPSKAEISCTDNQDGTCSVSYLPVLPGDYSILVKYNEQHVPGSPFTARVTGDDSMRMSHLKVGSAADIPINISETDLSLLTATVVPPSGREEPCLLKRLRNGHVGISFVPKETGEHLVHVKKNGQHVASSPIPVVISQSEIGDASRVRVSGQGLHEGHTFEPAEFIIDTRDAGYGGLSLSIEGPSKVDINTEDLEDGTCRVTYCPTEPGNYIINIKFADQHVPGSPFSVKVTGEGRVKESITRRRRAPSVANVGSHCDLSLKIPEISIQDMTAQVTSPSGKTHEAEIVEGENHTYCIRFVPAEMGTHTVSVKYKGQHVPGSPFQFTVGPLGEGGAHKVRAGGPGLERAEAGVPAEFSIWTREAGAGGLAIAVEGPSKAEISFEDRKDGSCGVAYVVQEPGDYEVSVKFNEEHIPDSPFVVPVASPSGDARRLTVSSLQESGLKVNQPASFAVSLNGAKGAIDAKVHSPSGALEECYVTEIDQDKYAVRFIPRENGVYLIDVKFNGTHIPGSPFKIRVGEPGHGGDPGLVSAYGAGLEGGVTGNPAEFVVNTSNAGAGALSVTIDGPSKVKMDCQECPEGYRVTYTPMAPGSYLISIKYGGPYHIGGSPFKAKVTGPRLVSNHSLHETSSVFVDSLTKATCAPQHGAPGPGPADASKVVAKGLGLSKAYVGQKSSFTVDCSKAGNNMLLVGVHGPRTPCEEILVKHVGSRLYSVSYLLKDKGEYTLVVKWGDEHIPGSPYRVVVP", "experiment": "Isoelectric focusing of purified FLNA (FLNA conformation)", "format": "cell-based", "details": "1 nM; 4 days", "experimental": "FIGS. 33A and 33B show isoelectric focusing result data (FIG. 33A) for FLNA separately isolated from HPEC and MiaPaCa2 cells after four days of incubation (contact) of those cells with medium alone or medium plus 1 nM Compound C0105. […] N=4, *p<0.01.\nTo determine whether the conformation of FLNA is different in cancer and primary normal cells and whether Compound C0105 affects FLNA conformation, FLNA was purified from cancer and primary cells after incubation with vehicle or 1 nM Compound C0105 for 4 days. Cells were washed with PBS, scraped, sonicated for 10 seconds and solubilized using 0.5% digitonin/0.2% sodium cholate/0.5% NP-40 at 4° C. with end-over-end rotation for 1 hour. Following centrifugation to remove insoluble debris, the obtained lysate was treated with 1% SDS for 1 minute to dissociate the […] proteins, diluted 10-fold with immunoprecipitation buffer, and immunopurified with immobilized anti-FLNA. The resultant FLNA was eluted using 200 μl antigen-elution buffer (Thermo), neutralized immediately with 100 mM Tris HCl (pH9.0), diluted to 500 μl with 50 mM Tris HCl, pH7.5, and passed through a 100 kD cut-off filter.\nThe purified FLNA was suspended in the 100 μl isoelectric focusing sample buffer. […]"}}}
{"compound": "CN1CCC2(CC1)NCC(=O)N2Cc1ccccc1", "note": "[Compound C0105]", "values": [{"measurement": "Cell proliferation (Ki67 and PCNA levels)", "setting": "melanoma cells", "result": "reduces cell proliferation"}, {"measurement": "Cell proliferation (Ki67 and PCNA levels)", "setting": "[1]", "result": "reduces cell proliferation"}, {"measurement": "Cell proliferation (Ki67 and PCNA levels)", "setting": "[2]", "result": "Inhibits Proliferation"}, {"measurement": "Cell proliferation (Ki67 and PCNA levels)", "setting": "[3]", "result": "Inhibits Proliferation"}, {"measurement": "FLNA-associated PTEN and PP2A levels", "setting": "[4]", "result": "does not affect"}, {"measurement": "pS2152FLNA level", "setting": "[4]", "result": "does not affect"}, {"measurement": "Fraction of FLNA restored to the conformation (pI) present in HPECs", "setting": "FLNA from MiaPaCa2 cells", "result": "about 75%"}]}
